{"source": "patent US11534457B2", "about": "“Use of dextran sulfate” (priority 2017, dated 2022)", "system": "severe traumatic brain injury (sTBI)", "test": "sTBI in rats, brain gene expression arrays and pathway analysis (Example 9)", "type": "in vivo, Male Wistar rats", "description": "The experimental protocol used in this study was approved by the Ethical Committee of the Catholic University of Rome, according to international standards and guidelines for animal care. Male Wistar rats of 300-350 g body weight were fed with standard laboratory diet and water ad libitum in a controlled environment. As the anesthetic mixture, the animals received 35 mg/kg b.w. ketamine and 0.25 mg/kg body weight midazolam by i.p. injection. Severe traumatic brain injury (sTBI) was induced by dropping a 450 g weight from 2 m height on to the rat head that had been protected by a metal disk previously fixed on the skull, according to the “weight drop” impact acceleration model (Marmarou et al., A new model of diffuse brain injury in rats. Part I: Pathophysiology and biomechanics. J Neurosurg. 1994; 80: 291-300). […] At the end of each period of treatment, rats were anesthetized again and then immediately sacrificed.\nLMW-DS (Tikomed AB) was provided at a stock concentration of 20 mg/ml and was kept in a temperature-monitored refrigerator at 4° C. LMW-DS aliquots were diluted to the appropriate dosing concentration in sterile saline prior to delivery of a single subcutaneous injection.\nThree doses of LMW-DS were administered subcutaneously 30 minutes post-TBI. The animals were sacrificed at 2 days post-TBI. The animals were divided into the following subgroups:\nThree doses of LMW-DS were administered subcutaneously 30 minutes post-TBI. The animals were sacrificed at 7 days post-TBI. The animals were divided into the following subgroups:\nAn in vivo craniectomy was performed on all animals during anesthesia. After carefully removing the rat's skull, the brain was exposed and removed with a surgical spatula and quickly dropped in RNALater and preserved at 4° C. for further processing.\nRNA extraction and array processing was carried out by SourceBioscience. The arrays used were the Agilent Rat expression arrays.\nStatistical analysis was carried out using the Metaboanalyst software package. Gene expression changes of 10% with a p<0.05 were regarded as significant.\nPathway analysis of the differentially regulated genes was carried out using the Ingenuity pathway analysis package. The analysis was performed with special reference to pathways and molecular processes and diseases associated with neurodegenerative disease, including dementia, Alzheimer's disease, ALS, TBI and stroke, and with scarring and fibrosis, including glaucoma and normal pressure hydrocephalus (NPH) after subarachnoid haemorrhage.", "key": {"[1]": {"conditions": "TBI + 1 mg/kg LMW-DS, 2 days after TBI"}, "[2]": {"conditions": "TBI + 1 mg/kg LMW-DS, 7 days after TBI"}, "[3]": {"conditions": "TBI + 1 mg/kg LMW-DS, 7 days after TBI, relative to control"}, "[4]": {"conditions": "TBI + 1 mg/kg LMW-DS, after 7 days, TBI: Activated"}, "[5]": {"conditions": "TBI + 1 mg/kg LMW-DS, after 7 days, TBI: Inhibited"}, "[6]": {"conditions": "TBI + 5 mg/kg LMW-DS, 2 days after TBI"}}}
{"substance": "low molecular weight dextran sulfate [LMW-DS]", "values": [{"measurement": "Diseases or functions annotation: Migration of cells", "setting": "[1]", "value": "Activated"}, {"measurement": "Diseases or functions annotation: Necrosis", "setting": "[1]", "value": "Inhibited"}, {"measurement": "Diseases or functions annotation: Non-hematologic malignant neoplasm", "setting": "[1]", "value": "Inhibited"}, {"measurement": "Diseases or functions annotation: Pelvic tumor", "setting": "[1]", "value": "Inhibited"}, {"measurement": "Diseases or functions annotation: Proliferation of blood cells", "setting": "[1]", "value": "Inhibited"}, {"measurement": "Diseases or functions annotation: Proliferation of lymphatic system cells", "setting": "[1]", "value": "Inhibited"}, {"measurement": "Diseases or functions annotation: Proliferation of lymphocytes", "setting": "[1]", "value": "Inhibited"}, {"measurement": "Diseases or functions annotation: Quantity of blood cells", "setting": "[1]", "value": "Inhibited"}, {"measurement": "Diseases or functions annotation: Quantity of bone", "setting": "[1]", "value": "Inhibited"}, {"measurement": "Diseases or functions annotation: Quantity of cells", "setting": "[1]", "value": "Inhibited"}, {"measurement": "Diseases or functions annotation: Quantity of connective tissue cells", "setting": "[1]", "value": "Activated"}, {"measurement": "Diseases or functions annotation: Quantity of leukocytes", "setting": "[1]", "value": "Inhibited"}, {"measurement": "Diseases or functions annotation: Quantity of lymphatic system cells", "setting": "[1]", "value": "Inhibited"}, {"measurement": "Diseases or functions annotation: Quantity of phagocytes", "setting": "[1]", "value": "Inhibited"}, {"measurement": "Diseases or functions annotation: Rheumatic Disease", "setting": "[1]", "value": "Inhibited"}, {"measurement": "Diseases or functions annotation: Solid tumor", "setting": "[1]", "value": "Inhibited"}, {"measurement": "Diseases or functions annotation: Survival of organism", "setting": "[1]", "value": "Inhibited"}, {"measurement": "Diseases or functions annotation: Synthesis of hormone", "setting": "[1]", "value": "Activated"}, {"measurement": "Diseases or functions annotation: Thrombus", "setting": "[1]", "value": "Activated"}, {"measurement": "Diseases or functions annotation: Transport of molecule", "setting": "[1]", "value": "Activated"}, {"measurement": "Ingenuity canonical pathway: Adrenomedullin signaling pathway", "setting": "[2]", "value": "Inhibited"}, {"measurement": "Ingenuity canonical pathway: ERK5 Signaling", "setting": "[2]", "value": "Inhibited"}, {"measurement": "Ingenuity canonical pathway: Endothelin-1 Signaling", "setting": "[2]", "value": "Activated"}, {"measurement": "Ingenuity canonical pathway: G Beta Gamma Signaling", "setting": "[2]", "value": "Activated"}, {"measurement": "Ingenuity canonical pathway: NF-κB Signaling", "setting": "[2]", "value": "Inhibited"}, {"measurement": "Ingenuity canonical pathway: Opioid Signaling Pathway", "setting": "[2]", "value": "Inhibited"}, {"measurement": "Ingenuity canonical pathway: Role of NFAT in Regulation of the Immune Response", "setting": "[2]", "value": "Activated"}, {"measurement": "Ingenuity canonical pathway: Synaptic Long Term Depression", "setting": "[2]", "value": "Activated"}, {"measurement": "z score: Abdominal cancer", "setting": "[2]", "value": "−2.426"}, {"measurement": "z score: Abdominal carcinoma", "setting": "[2]", "value": "−1.987"}, {"measurement": "z score: Cell movement", "setting": "[2]", "value": "−1.01"}, {"measurement": "z score: Cell viability", "setting": "[2]", "value": "−1.584"}, {"measurement": "z score: Concentration of hormone", "setting": "[2]", "value": "−0.32"}, {"measurement": "z score: Development of connective tissue cells", "setting": "[2]", "value": "−0.005"}, {"measurement": "z score: Development of malignant tumor", "setting": "[2]", "value": "−1.326"}, {"measurement": "z score: Developmental process of synapse", "setting": "[2]", "value": "−0.152"}, {"measurement": "z score: Differentiation of bone cells", "setting": "[2]", "value": "−1.799"}, {"measurement": "z score: Differentiation of connective tissue cells", "setting": "[2]", "value": "−0.349"}, {"measurement": "z score: Digestive organ tumor", "setting": "[2]", "value": "−1.396"}, {"measurement": "z score: Digestive system cancer", "setting": "[2]", "value": "−1.96"}, {"measurement": "z score: Epithelial neoplasm", "setting": "[2]", "value": "−1.313"}, {"measurement": "z score: Formation of plasma membrane", "setting": "[2]", "value": "−0.152"}, {"measurement": "z score: Frequency of tumor", "setting": "[2]", "value": "−2.128"}, {"measurement": "z score: Gastrointestinal tumor", "setting": "[2]", "value": "−1.029"}, {"measurement": "z score: Hematologic cancer", "setting": "[2]", "value": "−1.067"}, {"measurement": "z score: Hematopoietic neoplasm", "setting": "[2]", "value": "−0.686"}, {"measurement": "z score: Incidence of tumor", "setting": "[2]", "value": "−1.614"}, {"measurement": "z score: Large intestine neoplasm", "setting": "[2]", "value": "−1.192"}, {"measurement": "z score: Liver tumor", "setting": "[2]", "value": "−1.91"}, {"measurement": "z score: Malignant genitourinary solid tumor", "setting": "[2]", "value": "−0.537"}, {"measurement": "z score: Metabolism of hormone", "setting": "[2]", "value": "−1.066"}, {"measurement": "z score: Pelvic tumor", "setting": "[2]", "value": "−1.214"}, {"measurement": "z score: Quantity of Ca^2+", "setting": "[2]", "value": "−0.11"}, {"measurement": "z score: Quantity of carbohydrate", "setting": "[2]", "value": 0.49}, {"measurement": "z score: Quantity of metal", "setting": "[2]", "value": 0.415}, {"measurement": "z score: Synthesis of lipid", "setting": "[2]", "value": 0.033}, {"measurement": "z score: Tumorigenesis of epithelial neoplasm", "setting": "[2]", "value": "−1.981"}, {"measurement": "z score: Tumorigenesis of tissue", "setting": "[2]", "value": "−0.998"}, {"measurement": "z score: Vaso-occlusion", "setting": "[2]", "value": 1.264}, {"measurement": "z score: Weight gain", "setting": "[2]", "value": 0.625}, {"measurement": "Ingenuity canonical pathway Adrenomedullin signaling pathway, z score", "setting": "[3]", "value": "−1"}, {"measurement": "Ingenuity canonical pathway ERK5 Signaling, z score", "setting": "[3]", "value": "−2"}, {"measurement": "Ingenuity canonical pathway Endothelin-1 Signaling, z score", "setting": "[3]", "value": 1.342}, {"measurement": "Ingenuity canonical pathway G Beta Gamma Signaling, z score", "setting": "[3]", "value": 1}, {"measurement": "Ingenuity canonical pathway NF-κB Signaling, z score", "setting": "[3]", "value": "−0.447"}, {"measurement": "Ingenuity canonical pathway Opioid Signaling Pathway, z score", "setting": "[3]", "value": "−0.447"}, {"measurement": "Ingenuity canonical pathway Role of NFAT in Regulation of the Immune Response, z score", "setting": "[3]", "value": 0.816}, {"measurement": "Ingenuity canonical pathway Synaptic Long Term Depression, z score", "setting": "[3]", "value": 1.342}, {"measurement": "Ingenuity canonical pathway mTOR Signaling, z score", "setting": "[3]", "value": 1}, {"measurement": "Diseases or functions annotation: Development of malignant tumor", "setting": "[4]", "value": "Inhibited"}, {"measurement": "Diseases or functions annotation: Digestive organ tumor", "setting": "[4]", "value": "Inhibited"}, {"measurement": "Diseases or functions annotation: Frequency of tumor", "setting": "[4]", "value": "Inhibited"}, {"measurement": "Diseases or functions annotation: Gastrointestinal tumor", "setting": "[4]", "value": "Inhibited"}, {"measurement": "Diseases or functions annotation: Hematologic cancer", "setting": "[4]", "value": "Inhibited"}, {"measurement": "Diseases or functions annotation: Hematopoietic neoplasm", "setting": "[4]", "value": "Inhibited"}, {"measurement": "Diseases or functions annotation: Incidence of tumor", "setting": "[4]", "value": "Inhibited"}, {"measurement": "Diseases or functions annotation: Large intestine neoplasm", "setting": "[4]", "value": "Inhibited"}, {"measurement": "Diseases or functions annotation: Vaso-occlusion", "setting": "[4]", "value": "Activated"}, {"measurement": "Diseases or functions annotation: Abdominal cancer", "setting": "[5]", "value": "Inhibited"}, {"measurement": "Diseases or functions annotation: Abdominal carcinoma", "setting": "[5]", "value": "Inhibited"}, {"measurement": "Diseases or functions annotation: Cell movement", "setting": "[5]", "value": "Inhibited"}, {"measurement": "Diseases or functions annotation: Cell viability", "setting": "[5]", "value": "Inhibited"}, {"measurement": "Diseases or functions annotation: Concentration of hormone", "setting": "[5]", "value": "Inhibited"}, {"measurement": "Diseases or functions annotation: Development of connective tissue cells", "setting": "[5]", "value": "Inhibited"}, {"measurement": "Diseases or functions annotation: Developmental process of synapse", "setting": "[5]", "value": "Inhibited"}, {"measurement": "Diseases or functions annotation: Differentiation of bone cells", "setting": "[5]", "value": "Inhibited"}, {"measurement": "Diseases or functions annotation: Differentiation of connective tissue cells", "setting": "[5]", "value": "Inhibited"}, {"measurement": "Diseases or functions annotation: Digestive system cancer", "setting": "[5]", "value": "Inhibited"}, {"measurement": "Diseases or functions annotation: Epithelial neoplasm", "setting": "[5]", "value": "Inhibited"}, {"measurement": "Diseases or functions annotation: Formation of plasma membrane", "setting": "[5]", "value": "Inhibited"}, {"measurement": "Diseases or functions annotation: Liver tumor", "setting": "[5]", "value": "Inhibited"}, {"measurement": "Diseases or functions annotation: Malignant genitourinary solid tumor", "setting": "[5]", "value": "Inhibited"}, {"measurement": "Diseases or functions annotation: Metabolism of hormone", "setting": "[5]", "value": "Inhibited"}, {"measurement": "Diseases or functions annotation: Pelvic tumor", "setting": "[5]", "value": "Inhibited"}, {"measurement": "Diseases or functions annotation: Quantity of Ca^2+", "setting": "[5]", "value": "Inhibited"}, {"measurement": "Diseases or functions annotation: Quantity of carbohydrate", "setting": "[5]", "value": "Activated"}, {"measurement": "Diseases or functions annotation: Quantity of metal", "setting": "[5]", "value": "Activated"}, {"measurement": "Diseases or functions annotation: Synthesis of lipid", "setting": "[5]", "value": "Activated"}, {"measurement": "Diseases or functions annotation: Tumorigenesis of epithelial neoplasm", "setting": "[5]", "value": "Inhibited"}, {"measurement": "Diseases or functions annotation: Tumorigenesis of tissue", "setting": "[5]", "value": "Inhibited"}, {"measurement": "Diseases or functions annotation: Weight gain", "setting": "[5]", "value": "Activated"}, {"measurement": "Diseases or functions annotation: Abdominal cancer", "setting": "[6]", "value": "Inhibited"}, {"measurement": "Diseases or functions annotation: Abdominal carcinoma", "setting": "[6]", "value": "Inhibited"}, {"measurement": "Diseases or functions annotation: Abdominal neoplasm", "setting": "[6]", "value": "Inhibited"}]}
